This passage reports inhibition in vivo results from ChEMBL document CHEMBL3046132, “Design and synthesis of thienopyridines as novel templates for acetylcholinesterase inhibitors” (2013).

The experiment has as its system Rattus norvegicus. The experiment can be described thus: In vivo inhibition of AchE in Wistar albino Rattus norvegicus (rat) brain at 10 mg/kg, po after 30 min relative to untreated control. In kind it is functional. Particulars: 0.5 h.

As for `O=C(CCCCC1CCSS1)NCCCNc1c2c(nc3sc4c(c13)CCCC4)CCCC2` (stereo not drawn), testing at 10 mg/kg gave an inhibition in vivo of 56.7%.
In the case of `Cc1sc2nc3c(c(NCCCN4C(=O)c5ccccc5C4=O)c2c1C)CCCC3` it was 46.2%; in that of `O=C1c2ccccc2C(=O)N1CCNCCCCNc1c2c(nc3sc4c(c13)CCCC4)CCCC2`, 45%.
The figure for `O=C1c2ccccc2C(=O)N1CCNCCCNc1c2c(nc3sc4c(c13)CCCC4)CCCC2` is 43.9%; for `Cc1sc2nc3c(c(NCCCCN4C(=O)c5ccccc5C4=O)c2c1C)CCCC3` it is 55.6%; for `O=C1c2ccccc2C(=O)N1CCCCNc1c2c(nc3sc4c(c13)CCCC4)CCCC2` it is 29.8%.
The figure for `C(CCNc1c2c(nc3sc4c(c13)CCCC4)CCCC2)CNc1c2c(nc3sc4c(c13)CCCC4)CCCC2` is 35.7%; for `Cc1sc2nc3c(c(NCCCCNc4c5c(nc6sc(C)c(C)c46)CCCC5)c2c1C)CCCC3` it is 41.5%.
In the case of `Nc1c2c(nc3ccccc13)CCCC2` [TACRINE], the inhibition in vivo at 10 mg/kg stood at 54.9%.
The figure for `O=C1c2ccccc2C(=O)N1CCCNc1c2c(nc3sc4c(c13)CCCC4)CCCC2` is 42.7%.
`Cc1sc2nc3c(c(NCCCCNC(=O)CCCCC4CCSS4)c2c1C)CCCC3` (stereo not drawn) came in with an inhibition in vivo at 10 mg/kg of 42.9%.
The compound `O=C(CCCCC1CCSS1)NCCCCNc1c2c(nc3sc4c(c13)CCCC4)CCCC2` (stereo not drawn) gave an inhibition in vivo at 10 mg/kg of 21.4%.
In the case of `Cc1sc2nc3c(c(NCCCNc4c5c(nc6sc(C)c(C)c46)CCCC5)c2c1C)CCCC3` it was 25.1%.
